According to ChEMBL document CHEMBL4014291, “Tripodal squaramide conjugates as highly effective transmembrane anion transporters” (Bioorg Med Chem Lett, 2017):
The source made the active and inactive calls. The calls are words filed in the database; no cut-off is given here.

Columns and labels:
[1] = Ionophoric activity across pyranine dye encapsulated pH 7 egg yolk L-alpha-phosphatidylcholine-based large unilamellar vesicles assessed as iodide ion transport by measuring initial rate constant for induction of pH discharge at 0.0078 mol% in presence of NaI loaded external vesicles by fluorescence method (reference value: 3.52 +/- 0.22 10^-2/min)
[2] = Ionophoric activity across pyranine dye encapsulated pH 7 egg yolk L-alpha-phosphatidylcholine-based large unilamellar vesicles assessed as sulfate ion transport by measuring induction of pH discharge up to 3 mol% in presence of Na2SO4 loaded external vesicles by fluorescence method
[3] = Ionophoric activity across pyranine dye encapsulated pH 7 egg yolk L-alpha-phosphatidylcholine-based large unilamellar vesicles assessed as chloride ion transport by measuring initial rate constant for induction of pH discharge at 0.125 mol% in presence of NaCl loaded external vesicles by fluorescence method (reference value: 0.81 +/- 0.22 10^-2/min)
[4] = Ionophoric activity across pyranine dye encapsulated pH 7 egg yolk L-alpha-phosphatidylcholine-based large unilamellar vesicles assessed as nitrate ion transport by measuring initial rate constant for induction of pH discharge at 0.0625 mol% in presence of NaNO3 loaded external vesicles by fluorescence method (reference value: 2.24 +/- 0.52 10^-2/min)
[5] = Ionophoric activity across pyranine dye encapsulated pH 7 egg yolk L-alpha-phosphatidylcholine-based large unilamellar vesicles assessed as bromide ion transport by measuring initial rate constant for induction of pH discharge at 0.0625 mol% in presence of NaBr loaded external vesicles by fluorescence method (reference value: 2.08 +/- 0.19 10^-2/min)
[6] = Ionophoric activity across egg yolk L-alpha-phosphatidylcholine-based large unilamellar vesicles loaded with NaCl assessed as release of chloride ion after 300 seconds in presence of NaNO3 loaded external vesicles by electrode technique
[7] = Ionophoric activity across pyranine dye encapsulated pH 7 egg yolk L-alpha-phosphatidylcholine-based large unilamellar vesicles assessed as bromide ion transport by measuring induction of pH discharge in presence of NaBr loaded external vesicles by fluorescence method
[8] = Binding affinity to tetramethylammonium sulfate anion after 2 mins by spectrophotometric method
[9] = Ionophoric activity across pyranine dye encapsulated pH 7 egg yolk L-alpha-phosphatidylcholine-based large unilamellar vesicles assessed as chloride ion transport by measuring initial rate constant for induction of pH discharge at 0.25 mol% in presence of NaCl loaded external vesicles by fluorescence method (reference value: 0.81 +/- 0.22 10^-2/min)
[10] = Ionophoric activity across pyranine dye encapsulated pH 7 egg yolk L-alpha-phosphatidylcholine-based large unilamellar vesicles assessed as nitrate ion transport by measuring initial rate constant for induction of pH discharge at 0.01563 mol% in presence of NaNO3 loaded external vesicles by fluorescence method (reference value: 2.24 +/- 0.52 10^-2/min)
[11] = Ionophoric activity across pyranine dye encapsulated pH 7 egg yolk L-alpha-phosphatidylcholine-based large unilamellar vesicles assessed as iodide ion transport by measuring initial rate constant for induction of pH discharge at 0.0156 mol% in presence of NaI loaded external vesicles by fluorescence method (reference value: 3.52 +/- 0.22 10^-2/min)
[12] = Ionophoric activity across pyranine dye encapsulated pH 7 egg yolk L-alpha-phosphatidylcholine-based large unilamellar vesicles assessed as bromide ion transport by measuring initial rate constant for induction of pH discharge at 0.0156 mol% in presence of NaBr loaded external vesicles by fluorescence method (reference value: 2.08 +/- 0.19 10^-2/min)
[13] = Ionophoric activity across pyranine dye encapsulated pH 7 egg yolk L-alpha-phosphatidylcholine-based large unilamellar vesicles assessed as nitrate ion transport by measuring induction of pH discharge in presence of NaNO3 loaded external vesicles by fluorescence method
[14] = Ionophoric activity across pyranine dye encapsulated pH 7 egg yolk L-alpha-phosphatidylcholine-based large unilamellar vesicles assessed as bromide ion transport by measuring initial rate constant for induction of pH discharge at 0.125 mol% in presence of NaBr loaded external vesicles by fluorescence method (reference value: 2.08 +/- 0.19 10^-2/min)
[15] = Ionophoric activity across pyranine dye encapsulated pH 7 egg yolk L-alpha-phosphatidylcholine-based large unilamellar vesicles assessed as iodide ion transport by measuring initial rate constant for induction of pH discharge at 0.0039 mol% in presence of NaI loaded external vesicles by fluorescence method (reference value: 3.52 +/- 0.22 10^-2/min)
[16] = Binding affinity to tetrabutylammonium chloride anion after 2 mins by spectrophotometric method
[17] = Ionophoric activity across pyranine dye encapsulated pH 7 egg yolk L-alpha-phosphatidylcholine-based large unilamellar vesicles assessed as iodide ion transport by measuring induction of pH discharge in presence of NaI loaded external vesicles by fluorescence method
[18] = Ionophoric activity across pyranine dye encapsulated pH 7 egg yolk L-alpha-phosphatidylcholine-based large unilamellar vesicles assessed as nitrate ion transport by measuring initial rate constant for induction of pH discharge at 0.125 mol% in presence of NaNO3 loaded external vesicles by fluorescence method (reference value: 2.24 +/- 0.52 10^-2/min)
[19] = Ionophoric activity across pyranine dye encapsulated pH 7 egg yolk L-alpha-phosphatidylcholine-based large unilamellar vesicles assessed as chloride ion transport by measuring induction of pH discharge in presence of NaCl loaded external vesicles by fluorescence method
[20] = Ionophoric activity across pyranine dye encapsulated pH 7 egg yolk L-alpha-phosphatidylcholine-based large unilamellar vesicles assessed as chloride ion transport by measuring initial rate constant for induction of pH discharge at 0.0313 mol% in presence of NaCl loaded external vesicles by fluorescence method (reference value: 0.81 +/- 0.22 10^-2/min)
[21] = Ionophoric activity across pyranine dye encapsulated pH 7 egg yolk L-alpha-phosphatidylcholine-based large unilamellar vesicles assessed as bromide ion transport by measuring initial rate constant for induction of pH discharge at 0.0313 mol% in presence of NaBr loaded external vesicles by fluorescence method (reference value: 2.08 +/- 0.19 10^-2/min)
[22] = Ionophoric activity across pyranine dye encapsulated pH 7 egg yolk L-alpha-phosphatidylcholine-based large unilamellar vesicles assessed as iodide ion transport by measuring initial rate constant for induction of pH discharge at 0.0625 mol% in presence of NaI loaded external vesicles by fluorescence method (reference value: 3.52 +/- 0.22 10^-2/min)
[23] = Ionophoric activity across pyranine dye encapsulated pH 7 egg yolk L-alpha-phosphatidylcholine-based large unilamellar vesicles assessed as bromide ion transport by measuring initial rate constant for induction of pH discharge at 0.25 mol% in presence of NaBr loaded external vesicles by fluorescence method (reference value: 2.08 +/- 0.19 10^-2/min)
[24] = Ionophoric activity across pyranine dye encapsulated pH 7 egg yolk L-alpha-phosphatidylcholine-based large unilamellar vesicles assessed as iodide ion transport by measuring initial rate constant for induction of pH discharge at 0.0313 mol% in presence of NaI loaded external vesicles by fluorescence method (reference value: 3.52 +/- 0.22 10^-2/min)
[25] = Ionophoric activity across egg yolk L-alpha-phosphatidylcholine-based large unilamellar vesicles loaded with NaCl assessed as chloride transportat 1 mol% after 300 seconds in presence of NaSO4 loaded external vesicles by electrode technique

Compound | K [1] | Activity [2] | K [3] | K [4] | K [5] | Activity [6] | EC50 [7] | Ka [8] | logKa [8] | K [9] | K [10] | K [11] | K [12] | EC50 [13] | K [14] | K [15] | Ka [16] | logKa [16] | EC50 [17] | K [18] | other results
O=c1c(NCCN(CCNc2c(Nc3cc(C(F)(F)F)cc(C(F)(F)F)c3)c(=O)c2=O)CCNc2c(Nc3cc(C(F)(F)F)cc(C(F)(F)F)c3)c(=O)c2=O)c(Nc2cc(C(F)(F)F)cc(C(F)(F)F)c2)c1=O | 4.41 ×10⁻² /min | inactive | 2.57 ×10⁻² /min | 4.52 ×10⁻² /min | 3.85 ×10⁻² /min | Dose-dependent effect | 0.49 mol% | > 1 ×10⁵ /M | > 5 | 3.87 ×10⁻² /min | 2.77 ×10⁻² /min | 5.92 ×10⁻² /min | 2.22 ×10⁻² /min | 0.23 mol% | 6.24 ×10⁻² /min | 3.7 ×10⁻² /min | 2.94 ×10³ /M | 3.47 | 0.05 mol% | 6.9 ×10⁻² /min | EC50 [19]: 0.75 mol%; K [20]: 1.32 ×10⁻² /min; K [21]: 2.89 ×10⁻² /min; K [22]: 10.6 ×10⁻² /min; K [23]: 10.8 ×10⁻² /min; K [24]: 7.67 ×10⁻² /min; Activity [25]: inactive
O=c1c(NCCN(CCNc2c(Nc3ccc(C(F)(F)F)cc3)c(=O)c2=O)CCNc2c(Nc3ccc(C(F)(F)F)cc3)c(=O)c2=O)c(Nc2ccc(C(F)(F)F)cc2)c1=O | 5.2 ×10⁻² /min | inactive | 4.04 ×10⁻² /min | 7.45 ×10⁻² /min | 7.27 ×10⁻² /min | Dose-dependent effect | 0.13 mol% | 4.79 ×10⁵ /M | 5.64 | 5.41 ×10⁻² /min | 3.17 ×10⁻² /min | 6.27 ×10⁻² /min | 3.37 ×10⁻² /min | 0.11 mol% | 11 ×10⁻² /min | 3.94 ×10⁻² /min | 7.03 ×10² /M | 2.84 | 0.06 mol% | 11.4 ×10⁻² /min | EC50 [19]: 0.14 mol%; K [20]: 1.68 ×10⁻² /min; K [21]: 4.31 ×10⁻² /min; K [22]: 14.5 ×10⁻² /min; K [24]: 9.99 ×10⁻² /min; Activity [25]: inactive
